According to patent publication US20100286074A1, “PHARMACEUTICAL USE OF G[…] MIXTURE THEREOF AND PHARMACEUTICAL COMPOSITION OF G[…] USE THEREOF” (LIMIN PHARMACEUTICAL FACTORY, LIVZON GROUP, priority 2007, published 2010):
Structures can show the parent of a compound that is named as a salt.

Legend:
[1] = tested on: platelet aggregation induced by ADP; assay: Platelet aggregation induced by ADP in patients after drug administration; assay type: in vivo, human; conditions: for platelet aggregation rate: patients, x ± s
Text: • a. The patients with chronic cardiovascular and cerebrovascular diseases, and the course of disease >1 month; • b.
• a. The patients attacked by acute myocardial infarction or stroke in one month; • b. […] The patients with medical history of serious liver, kidney disease, or digestive tract or other organ bleeding; • d. The persons with reduced granulocytes or platelets.
(§1) The course for both experimental group and control group are four weeks.
(§2) The basic drugs taken by the patients for treating their cardiovascular and cerebrovascular diseases were maintained the same in terms of dosage and usage during the period for observation, but they are forbidden to take anticoagulant drug, such as aspirin, dipyridamole or Phenylbutazone. The administration was stopped at the end of 4th week and re-examination was performed to observe the change of indexes.
Induction experiment of two different concentrations of ADP (0.5 μmol/L and 1.0 μmol/L) was performed and re-examination was conducted on the 2nd and 4th weekends.
In Table 1, 0.5 and 1.0 represent the induction rate of 0.5 μmol/L of ADP and 1.0 μmol/L of ADP respectively.

[2] = Laboratory examination: liver function, blood and urine routine; assay type: in vivo, human
bleeding time = assay: Bleeding time (Duke Method) in patients; assay type: in vivo, human
Description: as §2
(§3) Duke Method and Test Tube Method were used for determination respectively. The same method was used for the same case. The values are compared before and after the determination, and the changing values are calculated.

[3] = Adverse reactions in patients
Text: as §1

clotting time = assay: Clotting time (Test Tube Method) in patients; assay type: in vivo, human
Description: as §2, §3

[4] = four weeks of one tablet per day oral, induction with 0.5 μmol/L ADP
[5] = four weeks of one tablet per day oral, induction with 1.0 μmol/L ADP
[6] = two weeks of one tablet per day oral, induction with 0.5 μmol/L ADP
[7] = two weeks of one tablet per day oral, induction with 1.0 μmol/L ADP
[8] = after taking drug (four-week course)
[9] = before taking drug (baseline of the group)

Compound `Clc1ccccc1CN1CCc2sccc2C1` [TCP, ticlopidine hydrochloride, reference compound] has a platelet aggregation rate [1, 4] of 32.8 ± 23.1%, a platelet aggregation rate [1, 5] of 37.2 ± 25.4% and a platelet aggregation rate [1, 6] of 28.3 ± 23.8%. For the same compound, the platelet aggregation rate [1, 7] was 35.3 ± 20.8%, the “liver function, blood and urine routine” value ([2]; in vivo) was “do not change significantly” and the bleeding time (bleeding time; [8]) was 2.29 ± 1.40 min. For the same compound, the bleeding time (bleeding time; [9]) was 1.73 ± 1.35 min, the “cases with skin rash, hoarseness and mild dysphagia” value ([3]; human, in vivo, 2 weeks) was 2 cases and the adverse reactions incidence ([3]; human, in vivo, 4 weeks) was 11.87%. The “incidence of conjunctiva bleeding, purpura and bleeding spot on skin” value ([3]; human, in vivo, 4 weeks) was 3.45%.
For `CC(C)=CCC[C@](C)(O)[C@H]1CC[C@]2(C)[C@@H]1[C@H](O)C[C@@H]1[C@@]3(C)CC[C@H](O)C(C)(C)[C@@H]3[C@@H](O[C@@H]3O[C@H](CO)[C@@H](O)[C@H](O)[C@H]3O)C[C@]12C` [ginsenoside Rh1], the clotting time (clotting time; [8]) was 7.83 ± 2.55 min, the clotting time (clotting time; [9]) was 7.17 ± 2.59 min and the “platelet aggregation rate compared with the control group (TCP)” value ([1]; after taking drugs for 4 weeks) was “smaller than that of the control group obviously”. For the same compound, the platelet aggregation rate [1, 4] was 28.8 ± 23.4%, the platelet aggregation rate [1, 5] was 34.3 ± 25.6% and the platelet aggregation rate [1, 6] was 28.7 ± 22.5%. The platelet aggregation rate [1, 7] was 35.4 ± 23.4%, the “liver function, blood and urine routine” value ([2]; before taking drugs vs after taking drugs for 4 weeks, all within normal limits) was “do not change significantly” and the bleeding time (bleeding time; [8]) was 1.89 ± 1.11 min. For the same compound, the bleeding time (bleeding time; [9]) was 1.72 ± 1.20 min and the adverse reactions incidence ([3]; four-week course, mainly dizziness, nausea, conjunctiva bleeding and bleeding spot on skin) was 6.86%.
